Data on 1 molecule can be found in patent US9351941B2, “Radiofrequency-induced synchronization of in situ hyperthermia and chemotherapy via magnetic-nanoconjugates” (National Cheng Kung University, priority 2012, dated 2016).

This test has as its system tumor. As to the kind of experiment: targeting hyperthermia and chemotherapy through tail vein injection with RF treatment (FIG. 8). The class given is in vivo, C3H/HeN mice. To be noted: 5-FU injection alone, 770 nM, equivalent to total nanoparticle loaded drugs. On the procedure:
In addition, in an embodiment according to the present invention, targeting hyperthermia and chemotherapy through tail vein injection of the 5-FU-loaded Fe3O4@anti-HER2 nanoparticle (500 μg/mL) in a serial single daily dose for four consecutive days are evaluated. RF treatments are given 24 h after the nanoparticle had been injected. […] This indicates nanoparticle accumulation within tumor dissipate sufficient heat to generate hyperthermia effect.
Groups of male C3H/HeN mice 6-8 weeks old in this experiment were given a tail-vein injection of 200 μL 5-FU-loaded Fe3O4@anti-HER2 magnetic nanoparticle in PBS ([…]) or of PBS alone. One group of mice was sacrificed 24 h after the tail-vein injection. The rest of the mice were given 15 min RF treatment 24 h after the tail-vein injection. Twenty-four hours after the RF treatment, the mice were overdosed with the anesthetics ketamine and xylazine (8.7 mg/100 g and 1.3 mg/100 g), and their major organs (brain, heart, lungs, spleen, liver, kidneys) and blood were collected. Each organ was homogenized and dissolved in nitro-hydrochloric acid. The sample solutions were continuously shaken for two days to ensure Fe dissociation. All samples were filtered before analyzed using atomic absorption spectrometer (Solar M6 series; Unicam, UK). […]

On to `O=c1[nH]cc(F)c(=O)[nH]1` [5-FU, 5-fluorouracil], for which the tumor growth result is given as “unable to suppress tumor growth”.
